Results taken from patent US20250197407A1 (Jazz Pharmaceuticals Ireland Limited, priority 2022, published 2025).

Each compound was assayed against SOS1/KRAS WT (Homo sapiens (Human), UniProt Q07889) (assay: SOS1/KRAS WT HTRF binding assay (FRET-based protein-protein interaction)). Details: inhibition of His6-SOS1 (aa564-1049, 40 nM) binding to GST-KRAS-WT (aa1-188, 40 nM); at least two independent replicates; read-out: SOS1/KRAS WT HTRF Binding assay pIC50 (converted).
SOS1/KRAS WT, sequence (Q07889 564-1049): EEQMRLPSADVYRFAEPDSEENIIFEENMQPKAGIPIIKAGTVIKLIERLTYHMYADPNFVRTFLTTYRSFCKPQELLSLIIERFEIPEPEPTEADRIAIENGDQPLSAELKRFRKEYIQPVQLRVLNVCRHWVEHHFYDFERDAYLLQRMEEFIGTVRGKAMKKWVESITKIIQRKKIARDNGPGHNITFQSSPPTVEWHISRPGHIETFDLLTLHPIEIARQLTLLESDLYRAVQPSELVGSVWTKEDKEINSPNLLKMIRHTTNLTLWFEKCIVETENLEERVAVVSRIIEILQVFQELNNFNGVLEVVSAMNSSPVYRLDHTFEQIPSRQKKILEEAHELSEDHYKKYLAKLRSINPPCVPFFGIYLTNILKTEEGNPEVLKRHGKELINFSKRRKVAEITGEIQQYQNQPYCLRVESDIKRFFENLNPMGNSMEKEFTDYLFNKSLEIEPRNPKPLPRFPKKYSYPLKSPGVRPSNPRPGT
Excerpt: The capacity of compounds to inhibit SOS1 binding to KRAS-WT (wild-type) was quantified using a FRET-based protein-protein interaction assay. The assay is based on the transfer of energy between two fluorophores, a donor and an acceptor, when in close proximity. In this instance, the donor is a Europium-conjugated α-GST antibody that binds to GST-tagged KRAS-WT, and the acceptor is an XL665-conjugated α-His 6 antibody that binds to His 6-tagged SOS1. Binding of SOS1 to KRAS-WT results in an increased fluorescent signal at emission wavelength of 665 nm which can be detected on the EnVision plate reader. Compounds that inhibit binding will reduce the 665 nm signal emitted. Recombinant KRAS-WT protein (40 nM; Human KRAS, aa1-188 recombinant protein with N-terminal GST-tag) and SOS1 protein (40 nM; Human SOS1 exchange domain, aa564-1049 with N-terminal 6His-tag) were mixed together in assay buffer (5 mM HEPES pH7.3, 150 mM NaCl, 10 mM EDTA, 5 mM MgCl2, 0.05% BSA, 0.0025% NP-40, 1 mM DTT and 100 mM KF) and incubated at room temperature with a dose response of compound in a 384-well low volume white plate and a final volume of 5 ul. After a 60 minute incubation, 5 ul of 4 nM anti-GST-Eu(K) (Cisbio, France) combined with 20 nM anti-6His-XL665 (Cisbio, France), diluted in assay buffer, was added to the plate. Following a further 4 hr incubation at room temperature, time-resolved fluorescence was measured on the EnVision plate reader. DMSO (0.05%) and 10 μM reference compound were used to generate the Max and Min assay signals, respectively. Data was analysed using a four-parameter logistic model to calculate IC50 values, with at least two independent replicates performed for each compound.
Data was analyzed using a four-parameter logistic model to calculate IC50 values, with at least two independent replicates performed for each compound.
Work on `Cc1nnc(N[C@H](C)c2cccc(C(F)(F)F)c2)c2cc3c(cc12)OC1(CC1)C(=O)N3C(C)C` [Compound 25, 4′-isopropyl-9′-methyl-6′-[[(1R)-1-[3-(trifluoromethyl)phenyl]ethyl]amino]spiro[cyclopropane-1,2′-pyridazino[4,5-g][1,4]benzoxazine]-3′-one] yielded an IC50 of 0.0631 µM.
Compound `Cc1nnc(N[C@H](C)c2cccc(C(F)(F)CO)c2F)c2cc3c(cc12)n(C)c(=O)n3C(C)(C)C` [Compound 26, 3-tert-butyl-1,8-dimethyl-5-[[(1R)-1-[3-(1,1-difluoro-2-hydroxy-ethyl)-2-fluoro-phenyl]ethyl]amino]imidazo[4,5-g]phthalazin-2-one] has an IC50 of 0.0145 µM.
Compound `Cc1nnc(N[C@H](C)c2cccc(C(F)F)c2F)c2cc3c(cc12)n(C)c(=O)n3C(C)(C)C` [Compound 27, 3-tert-butyl-1,8-dimethyl-5-[[(1R)-1-[3-(difluoromethyl)-2-fluoro-phenyl]ethyl]amino]imidazo[4,5-g]phthalazin-2-one] has an IC50 of 0.00933 µM.
`COCCn1c(=O)n(C)c2cc3c(C)nnc(N[C@H](C)c4cccc(C(F)F)c4F)c3cc21` [Compound 28, 3-(2-methoxyethyl)-1,8-dimethyl-5-[[(1R)-1-[3-(difluoromethyl)-2-fluoro-phenyl]ethyl]amino]imidazo[4,5-g]phthalazin-2-one] showed an IC50 of 0.0123 µM.
`Cc1nnc(N[C@H](C)c2cccc(C(F)F)c2F)c2cc3c(cc12)OC(C)(C)C(=O)N3C` [Compound 30, 2,2,4,9-tetramethyl-6-[[(1R)-1-[3-(difluoromethyl)-2-fluoro-phenyl]ethyl]amino]pyridazino[4,5-g][1,4]benzoxazin-3-one] was tested, and the IC50 was 0.0148 µM.
`Cc1nnc(N[C@H](C)c2cccc(C(F)F)c2F)c2cc3c(cc12)n(C)c(=O)n3C` [Compound 31, 1,3,8-trimethyl-5-[[(1R)-1-[3-(difluoromethyl)-2-fluoro-phenyl]ethyl]amino]imidazo[4,5-g]phthalazin-2-one] was tested, and the IC50 was 0.00955 µM.
`Cc1nnc(N[C@H](C)c2cccc(C(F)(F)F)c2)c2cc3c(cc12)C(C)(C)C(=O)N3C` [Compound 32, 1,3,3,5-tetramethyl-8-[[(1R)-1-[3-(trifluoromethyl)phenyl]ethyl]amino] pyrrolo[2,3-g]phthalazin-2-one] gave an IC50 of 0.0107 µM.
For `Cc1nnc(N[C@H](C)c2cccc(C(F)(F)C(C)(C)O)c2F)c2cc3c(cc12)n(C)c(=O)n3C1CC1` [Compound 33, 3-cyclopropyl-1,8-dimethyl-5-[[(1R)-1-[3-(1,1-difluoro-2-hydroxy-2-methyl-propyl)-2-fluoro-phenyl]ethyl]amino]imidazo[4,5-g]phthalazin-2-one], the IC50 was 0.00977 µM.
`Cc1nnc(N[C@H](C)c2cccc(C(F)F)c2F)c2cc3c(cc12)n(C)c(=O)n3C1CC1` [Compound 34, 3-cyclopropyl-1,8-dimethyl-5-[[(1R)-1-[3-(difluoromethyl)-2-fluoro-phenyl]ethyl]amino]imidazo[4,5-g]phthalazin-2-one] gave an IC50 of 0.00977 µM.
For `COCCn1c(=O)n(C)c2cc3c(C)nnc(N[C@H](C)c4cccc(C(F)(F)F)c4F)c3cc21` [Compound 35, 3-(2-methoxyethyl)-1,8-dimethyl-5-[[(1R)-1-[2-fluoro-3-(trifluoromethyl)phenyl]ethyl]amino] imidazo[4,5-g]phthalazin-2-one], the IC50 was 0.0107 µM.
Work on `COCC(F)(F)c1cccc([C@@H](C)Nc2nnc(C)c3cc4c(cc23)n(C)c(=O)n4C)c1F` [Compound 36, 5-[[(1R)-1-[3-(1,1-difluoro-2-methoxy-ethyl)-2-fluoro-phenyl]ethyl]amino]-1,3,8-trimethyl-imidazo[4,5-g]phthalazin-2-one] yielded an IC50 of 0.012 µM.
`COCCn1c(=O)n(C)c2cc3c(C)nnc(N[C@H](C)c4cccc(C(F)(F)CO)c4F)c3cc21` [Compound 37, 3-(2-methoxyethyl)-1,8-dimethyl-5-[[(1R)-1-[3-(1,1-difluoro-2-hydroxy-ethyl)-2-fluoro-phenyl]ethyl]amino]imidazo[4,5-g]phthalazin-2-one] gave an IC50 of 0.0105 µM.
In the case of `Cc1nnc(N[C@H](C)c2cccc(C(F)(F)F)c2F)c2cc3c(cc12)n(C)c(=O)n3C(C)C` [Compound 38, 3-isopropyl-1,8-dimethyl-5-[[(1R)-1-[2-fluoro-3-(trifluoromethyl)phenyl]ethyl]amino] imidazo[4,5-g]phthalazin-2-one], the IC50 was 0.00759 µM.
`Cc1c(C#N)cccc1[C@@H](C)Nc1nnc(C)c2cc3c(cc12)n(C)c(=O)n3C` [Compound 39, 2-methyl-3-[(1R)-1-[(1,3,8-trimethyl-2-oxo-imidazo[4,5-g]phthalazin-5-yl)amino]ethyl]benzonitrile] gave an IC50 of 0.0447 µM.
`Cc1nnc(N[C@H](C)c2cccc(C(F)(F)F)c2F)c2cc3c(cc12)n(C)c(=O)n3C` [Compound 40, 1,3,8-trimethyl-5-[[(1R)-1-[2-fluoro-3-(trifluoromethyl)phenyl]ethyl]amino]imidazo[4,5-g]phthalazin-2-one] showed an IC50 of 0.00891 µM.
`Cc1nnc(N[C@H](C)c2cccc(C(F)(F)CN)c2F)c2cc3c(cc12)n(C)c(=O)n3C` [Compound 41, 1,3,8-trimethyl-5-[[(1R)-1-[3-(2-amino-1,1-difluoro-ethyl)-2-fluoro-phenyl]ethyl]amino]imidazo[4,5-g]phthalazin-2-one] gave an IC50 of 0.0162 µM.
`Cc1nnc(N[C@H](C)c2cccc(C(F)(F)F)c2)c2cc3c(cc12)OCCC(=O)N3C` [Compound 42, 5,10-dimethyl-7-[[(1R)-1-[3-(trifluoromethyl)phenyl]ethyl]amino]-2,3-dihydropyridazino[4,5-h][1,5]benzoxazepin-4-one] showed an IC50 of 0.0347 µM.
In the case of `Cc1nnc(N[C@H](C)c2cccc(C(F)F)c2F)c2cc3c(cc12)n(C)c(=O)n3C(C)C` [Compound 43, 3-isopropyl-1,8-dimethyl-5-[[(1R)-1-[3-(difluoromethyl)-2-fluoro-phenyl]ethyl]amino]imidazo[4,5-g]phthalazin-2-one], the IC50 was 0.00282 µM.
Compound `Cc1nnc(N[C@H](C)c2cccc(C(F)F)c2F)c2cc3c(cc12)C(C)(C)C(=O)N3C` [Compound 44, 1,3,3,5-tetramethyl-8-[[(1R)-1-[3-(difluoromethyl)-2-fluoro-phenyl]ethyl]amino]pyrrolo[2,3-g]phthalazin-2-one] has an IC50 of 0.00871 µM.
`Cc1c(C#N)cccc1[C@@H](C)Nc1nnc(C)c2cc3c(cc12)n(C(C)C)c(=O)n3C` [Compound 45, 2-methyl-3-[(1R)-1-[(3-isopropyl-1,8-dimethyl-2-oxo-imidazo[4,5-g]phthalazin-5-yl)amino]ethyl]benzonitrile] was tested, and the IC50 was 0.00977 µM.
Work on `Cc1nnc(N[C@H](C)c2cccc(C(F)(F)C(C)(C)O)c2F)c2cc3c(cc12)C(C)(C)C(=O)N3C` [Compound 46, 1,3,3,5-tetramethyl-8-[[(1R)-1-[3-(1,1-difluoro-2-hydroxy-2-methyl-propyl)-2-fluoro-phenyl]ethyl]amino]pyrrolo[2,3-g]phthalazin-2-one] yielded an IC50 of 0.011 µM.
With `Cc1c(C#N)cccc1[C@@H](C)Nc1nnc(C)c2cc3c(cc12)n(C1CC1)c(=O)n3C` [Compound 47, 2-methyl-3-[(1R)-1-[(3-cyclopropyl-1,8-dimethyl-2-oxo-imidazo[4,5-g]phthalazin-5-yl)amino]ethyl]benzonitrile] the IC50 was 0.0138 µM.
`Cc1c(C#N)cccc1[C@@H](C)Nc1nnc(C)c2cc3c(cc12)N(C)C(=O)C3(C)C` [Compound 48, 2-methyl-3-[(1R)-1-[(1,3,3,5-tetramethyl-2-oxo-pyrrolo[3,2-g]phthalazin-8-yl)amino]ethyl]benzonitrile] gave an IC50 of 0.0135 µM.
Compound `Cc1c(C#N)cccc1[C@@H](C)Nc1nnc(C)c2cc3c(cc12)n(C(C)(C)C)c(=O)n3C` [Compound 49, 2-methyl-3-[(1R)-1-[(3-tert-butyl-1,8-dimethyl-2-oxo-imidazo[4,5-g]phthalazin-5-yl)amino]ethyl]benzonitrile] has an IC50 of 0.0112 µM.
`Cc1nnc(N[C@H](C)c2cccc(C(F)(F)F)c2)c2cc3c(cc12)n(C)c(=O)n3CC(F)F` [Compound 50, 3-(2,2-difluoroethyl)-1,8-dimethyl-5-[[(1R)-1-[3-(trifluoromethyl)phenyl]ethyl]amino] imidazo[4,5-g]phthalazin-2-one] was tested, and the IC50 was 0.0132 µM.
For `Cc1nnc(N[C@H](C)c2cc(F)cc(C(F)(F)CO)c2)c2cc3c(cc12)n(C)c(=O)n3C` [Compound 51, 5-[[(1R)-1-[3-(1,1-difluoro-2-hydroxy-ethyl)-5-fluoro-phenyl]ethyl]amino]-1,3,8-trimethyl-imidazo[4,5-g]phthalazin-2-one], the IC50 was 0.0234 µM.
In the case of `Cc1nnc(N[C@H](C)c2cccc(C(F)(F)F)c2F)c2cc3c(cc12)n(C)c(=O)n3C1CC1` [Compound 52, 3-cyclopropyl-1,8-dimethyl-5-[[(1R)-1-[2-fluoro-3-(trifluoromethyl)phenyl]ethyl]amino] imidazo[4,5-g]phthalazin-2-one], the IC50 was 0.00813 µM.
